What was measured:
[1] = target: CYP2C9 (Homo sapiens, UniProt P11712); assay: FDA guidance DDI risk assessment, perpetrator potential; set-up: from tissue; host or cells: pooled human liver microsomes (n=200 donors); conditions: predicted @ 600 mg BID
Procedure: (§1) The potential for rodatristat ethyl or rodatristat to be perpetrators of drug-drug interactions was assessed across in vitro CYP and transporter studies (Tables 1-4). […] This analysis was performed to assess the potential for clinically meaningful DDIs as recommended in FDA Draft Guidance: “In Vitro Metabolism- and Transporter-Mediated Drug-Drug Interaction Studies Guidance for Industry”; October 2017 (FDA, 2017).
(§2) R1 and R3 values using free (non-protein bound) drug levels were calculated based on plasma protein binding (fraction bound, fb) of rodatristat ethyl (0.995) and rodatristat (0.991). The FDA Guidance is set forth In Vitro Metabolism- and Transporter-Mediated Drug-Drug Interaction Studies Guidance for Industry (2017). […] Parameters for the prediction are set forth below in Tables 5 and 6.

[2] = target: CYP2D6 (Homo sapiens, UniProt P10635); assay: as above; set-up: from tissue; host or cells: pooled human liver microsomes (n=200 donors); conditions: predicted @ 600 mg BID
CYP2D6, sequence (P10635 whole entry): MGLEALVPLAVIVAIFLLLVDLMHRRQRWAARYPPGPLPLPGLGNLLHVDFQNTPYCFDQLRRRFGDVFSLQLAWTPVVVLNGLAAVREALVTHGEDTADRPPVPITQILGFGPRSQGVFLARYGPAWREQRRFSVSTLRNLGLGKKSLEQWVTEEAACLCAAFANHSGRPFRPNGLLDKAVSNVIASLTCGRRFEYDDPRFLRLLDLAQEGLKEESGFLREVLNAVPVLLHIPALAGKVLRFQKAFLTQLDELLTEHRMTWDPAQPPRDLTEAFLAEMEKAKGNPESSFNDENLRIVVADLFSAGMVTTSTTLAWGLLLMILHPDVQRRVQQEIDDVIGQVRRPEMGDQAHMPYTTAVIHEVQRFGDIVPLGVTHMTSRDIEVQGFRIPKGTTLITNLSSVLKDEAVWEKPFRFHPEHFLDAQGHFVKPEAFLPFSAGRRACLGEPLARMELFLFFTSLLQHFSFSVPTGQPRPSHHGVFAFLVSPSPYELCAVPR
Procedure: as §1, §2

[3] = target: CYP2C19 (Homo sapiens, UniProt P33261); assay: as above; set-up: from tissue; host or cells: pooled human liver microsomes (n=200 donors); conditions: predicted @ 600 mg BID
CYP2C19, sequence (P33261 whole entry): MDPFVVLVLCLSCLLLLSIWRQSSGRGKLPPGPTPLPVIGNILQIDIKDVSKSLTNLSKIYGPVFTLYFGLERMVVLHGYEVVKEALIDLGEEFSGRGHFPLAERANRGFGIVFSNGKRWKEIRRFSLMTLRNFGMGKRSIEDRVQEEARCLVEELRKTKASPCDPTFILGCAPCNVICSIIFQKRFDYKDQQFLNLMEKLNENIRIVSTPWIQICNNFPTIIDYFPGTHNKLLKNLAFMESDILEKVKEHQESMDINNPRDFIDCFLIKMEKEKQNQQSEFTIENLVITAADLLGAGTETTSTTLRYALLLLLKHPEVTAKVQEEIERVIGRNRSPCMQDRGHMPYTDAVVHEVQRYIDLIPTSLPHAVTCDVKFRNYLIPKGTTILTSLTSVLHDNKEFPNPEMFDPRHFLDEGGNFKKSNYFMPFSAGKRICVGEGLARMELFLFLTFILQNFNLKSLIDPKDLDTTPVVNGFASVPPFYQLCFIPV
Procedure: as §1, §2

[4] = target: T1, CYP2C8 (Homo sapiens, UniProt P10632); assay: as above; set-up: from tissue; host or cells: pooled human liver microsomes (n=200 donors); conditions: for Potential for interaction (perpetrator), CYP2C8: predicted @ 600 mg BID
T1 sequence (P10632 1-490): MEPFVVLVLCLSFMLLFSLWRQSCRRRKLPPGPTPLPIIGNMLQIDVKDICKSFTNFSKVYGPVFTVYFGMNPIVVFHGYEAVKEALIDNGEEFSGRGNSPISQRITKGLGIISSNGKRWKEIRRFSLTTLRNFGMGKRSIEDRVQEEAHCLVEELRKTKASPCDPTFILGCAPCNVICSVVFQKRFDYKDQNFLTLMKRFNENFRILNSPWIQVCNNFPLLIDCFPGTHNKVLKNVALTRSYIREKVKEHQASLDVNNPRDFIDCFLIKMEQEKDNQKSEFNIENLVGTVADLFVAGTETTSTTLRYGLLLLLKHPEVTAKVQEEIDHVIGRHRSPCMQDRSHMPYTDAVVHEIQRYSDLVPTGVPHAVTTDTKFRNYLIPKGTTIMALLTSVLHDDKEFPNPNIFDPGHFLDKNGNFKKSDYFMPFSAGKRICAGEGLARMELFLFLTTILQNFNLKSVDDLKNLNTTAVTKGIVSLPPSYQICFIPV
Procedure: as §1, §2

[5] = target: T2, CYP1A2 (Homo sapiens, UniProt P05177); assay: as above; set-up: from tissue; host or cells: pooled human liver microsomes (n=200 donors); conditions: predicted @ 600 mg BID
T2 sequence (P05177 1-516): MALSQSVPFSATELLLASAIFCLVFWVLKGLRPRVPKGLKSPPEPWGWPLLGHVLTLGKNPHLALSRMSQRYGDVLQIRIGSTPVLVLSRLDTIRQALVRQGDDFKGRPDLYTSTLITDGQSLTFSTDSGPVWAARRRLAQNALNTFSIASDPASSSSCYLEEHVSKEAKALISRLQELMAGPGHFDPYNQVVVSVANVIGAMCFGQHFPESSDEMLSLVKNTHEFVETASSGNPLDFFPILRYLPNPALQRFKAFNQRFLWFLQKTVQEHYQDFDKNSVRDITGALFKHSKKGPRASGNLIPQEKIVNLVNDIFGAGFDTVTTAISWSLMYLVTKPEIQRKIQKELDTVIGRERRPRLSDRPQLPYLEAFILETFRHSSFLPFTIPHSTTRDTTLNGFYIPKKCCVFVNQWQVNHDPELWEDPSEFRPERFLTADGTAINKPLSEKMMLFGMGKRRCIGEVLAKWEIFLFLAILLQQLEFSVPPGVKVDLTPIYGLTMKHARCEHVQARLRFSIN
Procedure: as §1, §2

[6] = target: T3, CYP2B6 (Homo sapiens, UniProt P20813); assay: as above; set-up: from tissue; host or cells: pooled human liver microsomes (n=200 donors); conditions: predicted @ 600 mg BID
T3 sequence (P20813 1-491): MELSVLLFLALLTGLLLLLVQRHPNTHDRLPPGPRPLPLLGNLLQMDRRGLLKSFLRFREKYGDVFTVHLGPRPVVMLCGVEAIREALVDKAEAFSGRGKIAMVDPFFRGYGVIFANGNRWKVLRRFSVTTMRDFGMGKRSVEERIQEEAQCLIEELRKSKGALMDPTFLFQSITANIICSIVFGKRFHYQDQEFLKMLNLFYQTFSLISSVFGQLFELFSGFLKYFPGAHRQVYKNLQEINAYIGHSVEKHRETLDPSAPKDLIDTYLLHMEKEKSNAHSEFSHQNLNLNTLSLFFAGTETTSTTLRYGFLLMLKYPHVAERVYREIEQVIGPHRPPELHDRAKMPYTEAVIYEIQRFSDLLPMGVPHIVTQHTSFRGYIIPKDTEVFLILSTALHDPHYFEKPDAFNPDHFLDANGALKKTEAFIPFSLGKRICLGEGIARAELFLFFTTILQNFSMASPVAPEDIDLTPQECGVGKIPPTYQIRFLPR
Procedure: as §1, §2

[7] = target: T2, CYP1A2; assay: In vitro CYP substrate assessment (victim potential); type: in vitro ADME

CYP2C9, sequence (P11712 whole entry): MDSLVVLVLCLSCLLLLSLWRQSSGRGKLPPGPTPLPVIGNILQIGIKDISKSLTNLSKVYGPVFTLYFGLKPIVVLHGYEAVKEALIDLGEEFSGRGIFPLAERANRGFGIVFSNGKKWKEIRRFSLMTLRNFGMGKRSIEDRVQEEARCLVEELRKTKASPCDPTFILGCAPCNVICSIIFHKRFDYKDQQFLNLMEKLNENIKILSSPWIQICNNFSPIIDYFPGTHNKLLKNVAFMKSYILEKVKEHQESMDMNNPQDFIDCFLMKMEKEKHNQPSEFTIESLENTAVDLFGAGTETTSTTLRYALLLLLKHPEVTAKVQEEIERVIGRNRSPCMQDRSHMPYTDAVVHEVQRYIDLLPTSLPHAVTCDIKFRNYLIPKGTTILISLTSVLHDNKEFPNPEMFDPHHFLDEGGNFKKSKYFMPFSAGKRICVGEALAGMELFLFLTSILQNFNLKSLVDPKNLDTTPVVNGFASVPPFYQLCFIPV

| Structure (SMILES) | Potential for interaction (perpetrator), CYP2C9 [1] | Potential for interaction (perpetrator), CYP2D6 [2] | Potential for interaction (perpetrator), CYP2C19 [3] | Potential for interaction (perpetrator), CYP2C8 [4] | Potential for interaction (perpetrator), CYP1A2 [5] | Potential for interaction (perpetrator), CYP2B6 [6] | In vitro substrate? CYP1A2 [7] | Ratio of unbound Cmax to Ki, CYP2C8 ([4]; 600 mg BID) |
| --- | --- | --- | --- | --- | --- | --- | --- | --- |
| CCOC(=O)[C@@H]1CC2(CCN(c3cc(O[C@H](c4ccc(Cl)cc4-c4ccccc4)C(F)(F)F)nc(N)n3)CC2)CN1 [Rodatristat ethyl, (S)-ethyl 8-(2-amino-6-((R)-1-(5-chloro-[1,1′-biphenyl]-2-yl)-2,2,2-trifluoroethoxy)pyrimidin-4-yl)-2,8-diazaspiro[4.5]decane-3-carboxylate] | No | No | No | No | No | Yes | No |  |
| Nc1nc(O[C@H](c2ccc(Cl)cc2-c2ccccc2)C(F)(F)F)cc(N2CCC3(CC2)CN[C@H](C(=O)O)C3)n1 [Rodatristat, (S)-8-(2-amino-6-((R)-1-(5-chloro-[1,1′-biphenyl]-2-yl)-2,2,2-trifluoroeth-oxy)pyrimidin-4-yl)-2,8-diazaspiro[4.5]decane-3-carboxylic acid] | No | No | No | No | No | Yes | No | 0.014 |

Source: patent US20230074252A1, “DOSAGES AND METHODS FOR TREATING PULMONARY ARTERIAL HYPERTENSION WITH RODATRISTAT” (Altavant Sciences GmbH, priority 2020, published 2023)
